Results from patent publication US10214546B2, “Btk inhibitors” (MERCK SHARP & DOHME CORP., priority 2014, dated 2019).
Where two headings read alike, the source gives them in different places.

Key:
[1] = tested on: adenosine uptake into HeLa cells; assay: [3H]Adenosine uptake assay in HeLa cells; format: cell-based; details: [3H]adenosine accumulation in HeLa cells, compound range 10 μM to 0.032 nM, read-out: ADU inhibition IC50
In short: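 IC50 came from a 4-parameter fit of counts per second over a ten-point, 1:3 titration (final 10 µM down to […]). Compound was applied 30 min at ambient temperature in HBSS/5% FBS before a 500 nM [3H]adenosine solution was added; uptake ran 60 min, read by Cytostar-T proximity scintillation.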

[2] = target: BTK enzyme (recombinant full-length BTK, hBTK) (Homo sapiens (Human), UniProt Q06187); assay: BTK enzymatic activity LANCE TR-FRET assay; format: biochemical; details: 50 pM hBTK, 25 μM ATP, 2 μM biotin-A5-peptide; compound range 1 μM to 0.017 nM; read-out: BTK binding IC50
Sequence of BTK enzyme (recombinant full-length BTK, hBTK) (Q06187 whole entry): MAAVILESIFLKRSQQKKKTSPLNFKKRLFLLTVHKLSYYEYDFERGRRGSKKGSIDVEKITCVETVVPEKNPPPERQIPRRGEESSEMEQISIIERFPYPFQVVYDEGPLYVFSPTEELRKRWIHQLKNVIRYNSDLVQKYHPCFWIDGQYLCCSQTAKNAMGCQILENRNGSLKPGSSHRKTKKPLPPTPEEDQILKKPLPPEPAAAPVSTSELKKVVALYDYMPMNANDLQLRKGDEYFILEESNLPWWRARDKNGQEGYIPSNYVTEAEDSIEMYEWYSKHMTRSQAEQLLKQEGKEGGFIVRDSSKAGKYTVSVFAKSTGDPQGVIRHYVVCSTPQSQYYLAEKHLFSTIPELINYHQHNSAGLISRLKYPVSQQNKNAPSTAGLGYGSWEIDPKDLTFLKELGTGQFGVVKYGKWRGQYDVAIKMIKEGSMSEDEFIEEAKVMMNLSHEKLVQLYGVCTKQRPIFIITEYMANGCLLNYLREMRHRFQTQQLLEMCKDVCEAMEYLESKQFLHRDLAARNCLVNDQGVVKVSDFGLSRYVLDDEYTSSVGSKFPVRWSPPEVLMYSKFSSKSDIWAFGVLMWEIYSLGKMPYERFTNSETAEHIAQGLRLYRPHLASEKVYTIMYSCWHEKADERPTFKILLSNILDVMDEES

Row | Compound | IC50 ([1]; Homo sapiens, HeLa) | IC50 [2] | IC50 [1]
1 | CC1(C)C[C@@H]2CC[C@@H](c3nc(-c4ccc([C@@](C)(O)c5cccc(C(F)(F)F)c5)cc4)c4c(N)ncc(F)n34)CN2C1=O [Example 198, (6R,8aS)-6-[8-amino-5-fluoro-1-(4-{(1R)-1-hydroxy-1-[3-(trifluoromethyl)phenyl]ethyl}phenyl)imidazo [1,5-a]pyrazin-3-yl]-2,2-dimethylhexahydroindolizin-3(2H)-one] | 6.85 µM | 0.0071 µM | 
2 | C[C@@](O)(c1ccc(-c2nc([C@@H]3CC[C@H]4CCC(=O)N4C3)n3c(F)cnc(N)c23)cc1)c1cccc(C(F)F)c1 [Example 199, (6R,8aS)-6-(8-amino-1-(4-{(1R)-1-[3-(difluoromethyl)phenyl]-1-hydroxyethyl}phenyl)-5-fluoroimidazo[1,5-a]pyrazin-3-yl]hexahydroindolizin-3(2H)-one] | 4.5 µM | 0.00066 µM | 
3 | CC(O)(c1cccc(C(F)F)c1)c1ccc(-c2nc([C@@H]3CC[C@@H]4N(C3)C(=O)CC4(C)C)n3ccnc(N)c23)c(F)c1 (stereo partly drawn) [Example 200, (6R,8aS)-6-[8-amino-1-(4-{1-[3-(difluoromethyl)phenyl]-1-hydroxyethyl}-2-fluorophenyl)imidazo[1,5-a]pyrazin-3-yl]-1,1-dimethylhexahydroindolizin-3(2H)-one] |  | 0.0538 µM | 0.23 µM
4 | CC1(C)C[C@@H]2CC[C@@H](c3nc(-c4ccc(C(C)(O)c5cccc(C(F)F)c5)cc4F)c4c(N)nccn34)CN2C1=O (stereo partly drawn) [Example 201, (6R,8aS)-6-[8-amino-1-(4-{1-[3-(difluoromethyl)phenyl]-1-hydroxyethyl}-2-fluorophenyl)imidazo[1,5-a]pyrazin-3-yl]-2,2-dimethylhexahydroindolizin-3(2H)-one] |  | 0.0422 µM | 0.418 µM
5 | CC(O)(c1cccc(C(F)F)c1)c1ccc(-c2nc([C@@H]3CC[C@@H]4N(C3)C(=O)CC4(C)C)n3ccnc(N)c23)c(F)c1 (stereo partly drawn) [Example 202, (6R,8aS)-6-(8-amino-1-(4-{1-[3-(difluoromethyl)phenyl]-1-hydroxyethyl}-2-fluorophenyl)imidazo[1,5-a]pyrazin-3-yl]-1,1-dimethylhexahydroindolizin-3(2H)-one] |  | 0.00016 µM | 1.92 µM
6 | CC1(C)C[C@@H]2CC[C@@H](c3nc(-c4ccc(C(C)(O)c5cccc(C(F)F)c5)cc4F)c4c(N)nccn34)CN2C1=O (stereo partly drawn) [Example 203, (6R,8aS)-6-[8-amino-1-(4-{1-[3-(difluoromethyl)phenyl]-1-hydroxyethyl}-2-fluorophenyl)imidazo[1,5-a]pyrazin-3-yl]-2,2-dimethylhexahydroindolizin-3(2H)-one] |  | 0.00043 µM | 2.27 µM
7 | CCOc1cc([C@@](C)(O)c2cccc(C(F)(F)F)c2)ccc1-c1nc([C@@H]2CC[C@H]3CCC(=O)N3C2)n2c(F)cnc(N)c12 [Example 204, (6R,8aS)-6-[8-amino-1-(2-ethoxy-4-{(1S)-1-hydroxy-1-[3-(trifluoromethyl)phenyl]ethyl}phenyl)-5-fluoroimidazo[1,5-a]pyrazin-3-yl]hexahydroindolizin-3(2H)-one] | 5.87 µM | 0.0022 µM | 
8 | COc1cc(C(C)(O)c2cccc(C(F)(F)F)c2)ccc1-c1nc([C@@H]2CC[C@@H]3N(C2)C(=O)CC3(C)C)n2ccnc(N)c12 (stereo partly drawn) [Example 205, (6R,8aS)-6-[8-amino-1-(4-{1-hydroxy-1-[3-(trifluoromethyl)phenyl]ethyl}-2-methoxyphenyl)imidazo [1,5-a]pyrazin-3-yl]-1,1-dimethylhexahydroindolizin-3(2H)-one] |  | 0.002 µM | 3.5 µM
9 | COc1cc([C@@](C)(O)c2cccc(C(F)(F)F)c2)ccc1-c1nc([C@@H]2CC[C@H]3CC(C)(C)C(=O)N3C2)n2ccnc(N)c12 [Example 206, (6R,8aS)-6-[8-amino-1-(4-{(1S)-1-hydroxy-1-[3-(trifluoromethyl)phenyl]ethyl}-2-methoxyphenyl)imidazo [1,5-a]pyrazin-3-yl]-2,2-dimethylhexahydroindolizin-3(2H)-one] | 5.46 µM | 0.0038 µM | 
10 | CC(O)(c1cccc(C(F)F)c1)c1ccc(-c2nc([C@@H]3CC[C@H]4CCC(=O)N4C3)n3c(F)cnc(N)c23)c(F)c1 (stereo partly drawn) [Example 207, (6R,8aS)-6-[8-amino-1-(4-{1-[3-(difluoromethyl)phenyl]-1-hydroxyethyl}-2-fluorophenyl)-5-fluoroimidazo[1,5-a]pyrazin-3-yl]hexahydroindolizin-3(2H)-one] |  | 0.459 µM | 0.933 µM
11 | CC(O)(c1cccc(C(F)F)c1)c1ccc(-c2nc([C@@H]3CC[C@H]4CCC(=O)N4C3)n3c(F)cnc(N)c23)c(F)c1 (stereo partly drawn) [Example 208, (6R,8aS)-6-(8-amino-1-(4-{1-[3-(difluoromethyl)phenyl]-1-hydroxyethyl}-2-fluorophenyl)-5-fluoroimidazo[1,5-a]pyrazin-3-yl]hexahydroindolizin-3(2H)-one] |  | 0.0016 µM | 5.41 µM
12 | COc1cc(C(C)(O)c2cccc(C(F)(F)F)c2)ccc1-c1nc([C@@H]2CC[C@@H]3N(C2)C(=O)CC3(C)C)n2ccnc(N)c12 (stereo partly drawn) [Example 209, (6R,8aS)-6-[8-amino-1-(4-{1-hydroxy-1-[3-(trifluoromethyl)phenyl]ethyl}-2-methoxyphenyl)imidazo [1,5-a]pyrazin-3-yl]-1,1-dimethylhexahydroindolizin-3(2H)-one] |  | 0.026 µM | 1.12 µM
13 | COc1cc(C(O)(c2cccc(C(F)F)c2)C(F)(F)F)ccc1-c1nc([C@@H]2CC[C@H]3CCC(=O)N3C2)n2ccnc(N)c12 (stereo partly drawn) [Example 210, (6R,8aS)-6-[8-amino-1-(4-{1-[3-(difluoromethyl)phenyl]-2,2,2-trifluoro-1-hydroxyethyl}-2-methoxyphenyl)imidazo [1,5-a]pyrazin-3-yl]hexahydroindolizin-3(2H)-one] |  | 0.067 µM | 2.7 µM
14 | COc1cc(C(O)(c2cccc(C(F)F)c2)C(F)(F)F)ccc1-c1nc([C@@H]2CC[C@H]3CCC(=O)N3C2)n2ccnc(N)c12 (stereo partly drawn) [Example 211, (6R,8aS)-6-[8-amino-1-(4-{1-[3-(difluoromethyl)phenyl]-2,2,2-trifluoro-1-hydroxyethyl}-2-methoxyphenyl)imidazo [1,5-a]pyrazin-3-yl]hexahydroindolizin-3(2H)-one] |  | 0.0006 µM | 7.03 µM
15 | CCOc1cc([C@@](C)(O)c2cccc(C(F)(F)F)c2)cc(F)c1-c1nc([C@@H]2CC[C@H]3CCC(=O)N3C2)n2ccnc(N)c12 [Example 212, (6R,8aS)-6-[8-amino-1-(2-ethoxy-6-fluoro-4-{(1S)-1-hydroxy-1-[3-(trifluoromethyl)phenyl]ethyl}phenyl)imidazo [1,5-a]pyrazin-3-yl]hexahydroindolizin-3(2H)-one] | 3.52 µM | 0.329 µM | 
16 | CCOc1cc([C@](C)(O)c2cccc(C(F)(F)F)c2)cc(F)c1-c1nc([C@@H]2CC[C@H]3CCC(=O)N3C2)n2ccnc(N)c12 [Example 213, (6R,8aS)-6-[8-amino-1-(2-ethoxy-6-fluoro-4-{(1R)-1-hydroxy-1-[3-(trifluoromethyl)phenyl]ethyl}phenyl)imidazo [1,5-a]pyrazin-3-yl]hexahydroindolizin-3(2H)-one] | 6 µM | 0.00063 µM | 
17 | CCOc1cc(C(O)(c2cccc(C(F)(F)F)c2)C(F)(F)F)ccc1-c1nc([C@@H]2CC[C@H]3CCC(=O)N3C2)n2ccnc(N)c12 (stereo partly drawn) [Example 214, (6R,8aS)-6-[8-amino-1-(2-ethoxy-4-{2,2,2-trifluoro-1-hydroxy-1-[3-(trifluoromethyl)phenyl]ethyl}phenyl)imidazo [1,5-a]pyrazin-3-yl]hexahydroindolizin-3(2H)-one] | 3.11 µM | 0.0041 µM | 
18 | (6R.8aS)-6-[8-amino-1- (4-{(1R)-1-[3- (difluoromethyl)phenyl]-1- hydroxyethyl}phenyl)- 5-fluoroimidazo[1,5- a]pyrazin-3-yl]-2,2- dimethylhexahydroindolizin- 3(2H)-one [Example 178] |  | 0.0013 µM | 4.61 µM
